In article PMC3806773, “Discovery of P1736, a Novel Antidiabetic Compound That Improves Peripheral Insulin Sensitivity in Mice Models” (PLoS ONE, 2013):
Entries after “also recorded” stand apart in the source; their conditions may differ. Counter-ions that a name gives are not always drawn. Marks after values point to notes of the source that are not given here. Values belong to the compound of their own block, whether it stands above or below them.

How the values were obtained:
db/db mice [1] = test: Antidiabetic activity in db/db mice, once daily oral dosing; format: in vivo; conditions: for decrease in plasma triglyceride / reduction in plasma glucose / plasma adiponectin levels: 150 mg/kg oral once daily; for plasma adiponectin levels: vehicle 7.5 ± 0.44; for Liver weight / Plasma ALT / Plasma AST: 150mg/kg; for Liver weight: vehicle 1.8 + 0.10; for Plasma ALT: vehicle 91.2 + 12.7; for Plasma AST: vehicle 100.6 + 8.8; for reduction of high initial plasma glucose: db/db mice with high initial plasma glucose, 150 mg/kg once daily, 10 days
Procedure: After two weeks of acclimatization, db/db mice were deprived of food for 4h. Their weights were measured and blood was obtained by retro-orbital puncture for the determination of plasma glucose. The animals were randomized into groups (7-10/group) based on body weight and plasma glucose levels. Animals were dosed orally once a day, between 9.00 -10.00am for 15 consecutive days, with either P1736 (150mg/kg) or metformin (150mg/kg) or 0.5% carboxy methyl cellulose (CMC) vehicle. The dose of 150 mg/kg was chosen for once-a-day dosing of P1736, on the basis of its pharmacokinetic profile and to maintain high plasma concentrations. Body weight was measured daily. On days 10 and 15, blood samples were collected at the end of the 4h fasting after drug administration. Plasma samples were analysed for biochemical parameters, by enzymatic methods using autoanalyser 902(Hitachi instruments, Japan). Plasma adiponectin levels were measured using mouse ELISA kits (Millipore Inc. USA).

[2] = system: soleus muscles of ob/ob mice; test: Ex vivo muscle glucose uptake in ob/ob mice; conditions: for Glucose Uptake in soleus muscle (% Increase): ex vivo after chronic administration
Procedure: (§1) On day 9, food was withheld for 4 h and blood was collected for the analysis of plasma chemistry and plasma insulin levels. On days 12 and 13, 3-4 animals from each group were sacrificed and soleus muscles were excised. Radiolabelled glucose uptake was measured in the isolated soleus muscles by the method of Zierath and colleagues. Plasma Insulin was estimated using mouse ELISA kit (Linco, USA)

[3] = system: insulin resistant 3T3 adipocytes; test: Glucose uptake in dexamethasone-induced insulin resistant 3T3 adipocytes; format: cell-based; conditions: for EC50: Adipocyte, dose response, insulin resistant adipocytes, read-out: EC50 of increase in glucose uptake
Procedure: Fully differentiated 3T3 adipocytes generated in 24-well plates were used after day 8 of differentiation. Insulin resistance was induced essentially as described before. Briefly, adipocytes were incubated with 100 nM dexamethasone for six consecutive days. […].
Glucose uptake was measured essentially according to the method of Gao et al using ^14C-labeled 2-deoxy glucose as the tracer. Activity in this assay is defined as a statistically significant increase in glucose uptake of minimum 50% compared to the uptake seen in cells exposed to vehicle. Effect of wortmannin on glucose uptake was studied according to the method of Hausdorff et al using 100 nM wortmannin.

GLUT-4 = GLUT-4 translocation in insulin resistant 3T3 adipocytes (immunofluorescence); conditions: 4 days, 200nM insulin stimulated
ob/ob mice [4] = test: Antidiabetic activity in ob/ob mice; format: in vivo; conditions: 10 days
3T3-L1 cells = test: Adipogenesis screen; format: cell-based
Procedure: Adipogenesis screening was carried out essentially according to the method of Choi et al. […] Compounds that caused increase in adipogenesis by more than 5-fold of vehicle (0.1% DMSO) were considered positive and were selected for further screening.

[5] = system: adenosine mono phosphate activated kinase (AMPK); test: AMPK activity (MDS Pharma); format: biochemical
Procedure: (§2) Transactivation activity against human PPARγ and PPARα receptors was determined using luciferase reporter gene assays in the Laboratory of CloneGen Biotechnology, Michigan, USA. Activities of protein tyrosine phosphatase-1b (PTP-1B) and adenosine mono phosphate activated kinase (AMPK) were evaluated at MDS Pharma, Korea. Evaluation of activity against human 11-Hydroxysteroid dehydrogenase-1 was outsourced to University of Edinburg, UK which used a cell based method.

[6] = system: panel of membrane receptors, ion channels and enzymes; test: Screen against a panel of membrane receptors, ion channels and enzymes
ob/ob mice [7] = test: Antidiabetic activity in ob/ob mice; format: in vivo; conditions: for Liver weight: vehicle 4.3 ± 0.2; for Plasma AST: vehicle 468 ± 38; for Plasma ALT: vehicle 740 ± 71
Procedure: After one week of acclimatization, ob/ob mice (8/group) were dosed orally, twice daily for 10 consecutive days, with either P1736 (100 or 200 mg/kg) or vehicle. Rest of the procedure is exactly the same as that used for db/db mice and as described above.
as §1

human PPARα receptor = biological target: T1, human PPARα receptor (Homo sapiens, UniProt Q07869); test: PPARα transactivation luciferase reporter gene assay in HEK-293 cells; conditions: upto 10 μM
T1 sequence (Q07869 239-466 limits assumed): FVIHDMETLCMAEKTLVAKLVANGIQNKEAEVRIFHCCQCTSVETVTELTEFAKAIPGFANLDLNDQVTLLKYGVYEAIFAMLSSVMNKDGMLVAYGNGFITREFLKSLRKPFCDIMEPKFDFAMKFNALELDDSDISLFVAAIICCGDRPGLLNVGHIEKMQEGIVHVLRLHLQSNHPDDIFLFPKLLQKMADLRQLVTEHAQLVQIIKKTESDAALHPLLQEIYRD

[8] = biological target: T2, protein tyrosine phosphatase-1b (PTP-1B) (Homo sapiens, UniProt P18031); test: PTP-1B activity (MDS Pharma); format: biochemical
T2 construct: MDS Pharma, Korea (contract laboratory)
T2 sequence (P18031 1-435): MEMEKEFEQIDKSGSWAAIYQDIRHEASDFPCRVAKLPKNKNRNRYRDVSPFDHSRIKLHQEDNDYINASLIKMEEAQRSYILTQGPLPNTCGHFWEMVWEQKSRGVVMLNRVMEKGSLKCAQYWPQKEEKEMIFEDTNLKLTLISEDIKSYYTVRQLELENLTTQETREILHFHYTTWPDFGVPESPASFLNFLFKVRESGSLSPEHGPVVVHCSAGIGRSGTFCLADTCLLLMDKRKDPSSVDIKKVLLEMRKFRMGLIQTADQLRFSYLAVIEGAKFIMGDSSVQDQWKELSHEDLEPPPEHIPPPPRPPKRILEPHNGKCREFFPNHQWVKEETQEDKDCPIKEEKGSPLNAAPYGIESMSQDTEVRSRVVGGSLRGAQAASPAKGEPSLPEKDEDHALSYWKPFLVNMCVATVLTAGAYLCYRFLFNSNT
Procedure: as §2

human PPARγ receptor = biological target: T3, human PPARγ receptor (Homo sapiens, UniProt P37231); test: PPARγ transactivation luciferase reporter gene assay in HEK-293 cells; conditions: upto 10 μM
T3 sequence (P37231 238-503 limits assumed): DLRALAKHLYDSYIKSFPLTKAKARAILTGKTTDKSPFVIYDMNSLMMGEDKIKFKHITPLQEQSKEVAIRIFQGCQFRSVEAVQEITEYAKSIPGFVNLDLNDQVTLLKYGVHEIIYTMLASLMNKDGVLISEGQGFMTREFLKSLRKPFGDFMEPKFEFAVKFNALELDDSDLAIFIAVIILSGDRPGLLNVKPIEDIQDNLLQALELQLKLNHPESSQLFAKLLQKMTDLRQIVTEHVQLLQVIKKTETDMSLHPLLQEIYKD

db/db mice [9] = test: Dose response experiment in db/db mice, twice daily dosing; format: in vivo; conditions: for weight gain / decrease in plasma glucose / decrease in plasma triglyceride: 5 mg/kg twice daily; for weight gain: 15 days; for decrease in plasma glucose / decrease in plasma triglyceride: day 15
Procedure: The doses were given during 8.00-9.00 am and 5.00-6.00 pm daily. On day 15, blood was collected and plasma samples were analysed as described above.

Wistar rats = test: Plasma volume in rats (Evans Blue Dye method)
[10] = biological target: T4, human 11<beta>-Hydroxysteroid dehydrogenase-1 (Homo sapiens, UniProt P28845); test: 11beta-HSD1 cell based inhibition assay; conditions: concentration not given
T4 construct: University of Edinburgh, UK (outsourced)
Procedure: as §2

T4 sequence (P28845 whole entry): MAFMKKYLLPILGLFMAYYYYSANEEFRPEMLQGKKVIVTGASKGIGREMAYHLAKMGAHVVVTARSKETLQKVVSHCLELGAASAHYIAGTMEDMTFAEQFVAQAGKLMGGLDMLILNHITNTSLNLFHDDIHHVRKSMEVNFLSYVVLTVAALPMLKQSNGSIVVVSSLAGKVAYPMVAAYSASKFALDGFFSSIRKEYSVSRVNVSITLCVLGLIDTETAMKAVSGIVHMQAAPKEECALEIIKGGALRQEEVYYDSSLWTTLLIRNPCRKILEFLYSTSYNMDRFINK

Liver weight (db/db mice [1]): 2.1 + 0.08 gm
Structure (SMILES): CN(C)C(=N)N=C(N)N [Metformin, Metformin hydrochloride, reference compound]
decrease in plasma triglyceride (db/db mice [1]; day 10): 18%
reduction in plasma glucose (db/db mice [1]; day 10): 24%
decrease in plasma triglyceride (db/db mice [1]; day 15): 31%
reduction in plasma glucose (db/db mice [1]; day 15): 25%
plasma adiponectin levels (db/db mice [1]): 8.9 ± 0.64 µg/mL
Plasma ALT (db/db mice [1]): 75.3 + 6.4 U/L
Plasma AST (db/db mice [1]): 101.7 + 8.4 U/L
reduction of high initial plasma glucose (db/db mice [1]): 25%
Plasma Glucose (% Reduction) ([2]; 150.0 mg/kg): 37%
Glucose Uptake in soleus muscle (% Increase) ([2]; 150.0 mg/kg): 38* %
Glucose Uptake in soleus muscle (% Increase) ([2]; 150.0 mg/kg, listed as metformin): 38%
effect on glucose uptake ([3]; 1.0 mM, 4 days exposure): no effect
GLUT-4 translocation to plasma membrane (GLUT-4; 1 mM): inactive
lowering of plasma insulin levels (ob/ob mice [4]; 150 mg/kg): 43%

activity against AMPK [5]: no significant activity
activity against panel targets [6]: no significant activity
Liver weight (ob/ob mice [7]; 100mg/kg): 4.6 ± 0.2 gm
Liver weight (ob/ob mice [7]; 200mg/kg): 4.4 ± 0.3 gm
PPARα transactivation (human PPARα receptor): did not activate
Liver weight (db/db mice [1]): 2.1+ 0.10 gm
activity against PTP-1B [8]: no significant activity
PPARγ transactivation (human PPARγ receptor): no significant transactivation ability
normalized plasma volume (Wistar rats; female rats, 100 mg/kg once daily 28 days, control 35.56 ± 1.46): 30.91 ± 0.03 mL/kg
normalized plasma volume (Wistar rats; female rats, 300 mg/kg once daily 28 days, control 35.56 ± 1.46): 33.02 ± 0.28 mL/kg
normalized plasma volume (Wistar rats; male rats, 100 mg/kg once daily 28 days, control 33.44 ± 1.52): 31.55 ± 0.27 mL/kg
normalized plasma volume (Wistar rats; male rats, 300 mg/kg once daily 28 days, control 33.44 ± 1.52): 29.15 ± 0.02 mL/kg
inhibitory activity towards 11<beta>-Hydroxysteroid dehydrogenase-1 [10]: 50%
Structure (SMILES): O=S(=O)(Nc1cnc(Oc2cc3ccccc3cn2)c(Cl)c1)c1ccc(Cl)cc1Cl [P1736]
result in adipogenesis screen (3T3-L1 cells; 43 µM, positive = increase in adipogenesis by more than 5-fold of vehicle): positive
reduction in plasma glucose (ob/ob mice [7]; 100 mg/kg twice daily, 10 days): 30%
lowering of plasma insulin levels (ob/ob mice [7]; 100 mg/kg, 10 days): 50%
Plasma AST (ob/ob mice [7]; 100mg/kg): 547 ± 50 U/L
Plasma ALT (ob/ob mice [7]; 100mg/kg): 857 ± 72 U/L
reduction in plasma glucose (ob/ob mice [7]; 200 mg/kg twice daily, 10 days): 32%
Plasma AST (ob/ob mice [7]; 200mg/kg): 470 ± 57 U/L
Plasma ALT (ob/ob mice [7]; 200mg/kg): 668 ± 92 U/L
decrease in glucose (ob/ob mice [7]; ob/ob mice, dose not stated (abstract)): 30-35%
changes in body weight (ob/ob mice [7]; upto 200 mg/kg twice daily): did not induce adverse changes
decrease in plasma triglyceride (db/db mice [1]; day 10): 30%
reduction in plasma glucose (db/db mice [1]; day 10): 35%
decrease in plasma triglyceride (db/db mice [1]; day 15): 38%
reduction in plasma glucose (db/db mice [1]; day 15): 35%
plasma adiponectin levels (db/db mice [1]): 12.4 ± 0.33 µg/mL
effect on body weight (db/db mice [1]; 150 mg/kg, 15 days): did not affect body weight
Plasma ALT (db/db mice [1]): 99.0 + 8.5 U/L
Plasma AST (db/db mice [1]): 84.6 + 2.6 U/L
reduction of high initial plasma glucose (db/db mice [1]): 23%
Plasma Glucose (% Reduction) ([2]; 1.0 mg/kg): 34%
Glucose Uptake in soleus muscle (% Increase) ([2]; 1.0 mg/kg): 70%
Glucose Uptake in soleus muscle (% Increase) ([2]; 1.0 mg/kg, listed as P1736-05): 70* %
Plasma Glucose (% Reduction) ([2]; 5.0 mg/kg): 35%
Glucose Uptake in soleus muscle (% Increase) ([2]; 5.0 mg/kg): 67%
Glucose Uptake in soleus muscle (% Increase) ([2]; 5.0 mg/kg, listed as P1736-05): 67* %
effect on plasma glucose and triglyceride levels over the dose range (db/db mice [9]; 5 mg/kg to 200 mg/kg twice daily, EC50 could not be established): all the doses reduced plasma glucose and triglyceride levels
weight gain (db/db mice [9]): did not exhibit any tendency towards weight gain
decrease in plasma glucose (db/db mice [9]): 40%
decrease in plasma triglyceride (db/db mice [9]): 32%
effect on plasma volume or body weights (Wistar rats; oral, 28 days, male and female normal Wistar rats): did not cause significant increase
stimulation of glucose uptake after pretreatment with wortmannin ([3]; 10 µM compound, 100 nM wortmannin for 30 minutes): abolished
increase in glucose uptake compared to insulin resistant vehicle ([3]; 10 µM, 4 days exposure): more than 2 fold
EC50 [3]: 400 nM
GLUT-4 translocation to plasma membrane (GLUT-4; 10 µM): induced translocation; also recorded: complete translocation
lowering of plasma insulin levels (ob/ob mice [4]; 5 mg/kg): 40%

weight gain (db/db mice [9]): 13%
Structure (SMILES): CN(CCOc1ccc(CC2SC(=O)NC2=O)cc1)c1ccccn1 (stereo not drawn) [Rosiglitazone, rosiglitazone maleate, reference compound]
adipogenesis (3T3-L1 cells; 1.0 µM, positive control, vehicle induced 7-10%): > 90%
Plasma Glucose (% Reduction) ([2]; 5.0 mg/kg): 49%
Glucose Uptake in soleus muscle (% Increase) ([2]; 5.0 mg/kg): 147** %
Glucose Uptake in soleus muscle (% Increase) ([2]; 5.0 mg/kg, listed as rosiglitazone): 147%
decrease in plasma glucose (db/db mice [9]): 60%
decrease in plasma triglyceride (db/db mice [9]): 40%
decrease in plasma glucose (db/db mice [9]; listed as rosiglitazone): about 60%
EC50 [3]: 20 nM
effect on glucose uptake ([3]; rosiglitazone 0.1 µM): potentiated glucose uptake and re-sensitized the cells
GLUT-4 translocation to plasma membrane (GLUT-4; 0.1 µM): caused GLUT-4 translocation
lowering of plasma insulin levels (ob/ob mice [4]; 5 mg/kg): 80%
